Read-outs that look alike come from different tables or passages of the source.

For this test, the target named is KRAS G12C and cRAF (Ras-binding domain) interaction (Homo sapiens (Human), UniProt P01116, C118S/C51S/C80L/G12C). The test can be described thus: Inhibition of KRAS G12C and cRAF binding (AlphaScreen). The gist of the method: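 IC50 values come from 4-parameter nonlinear regression of AlphaScreen signal (680 nm excitation, 570 nm emission). Compound plates sat 19-20 h at room temperature before RBD and donor/acceptor beads were added in Hepes pH 7.4 buffer with 150 mM NaCl, 5 mM MgCl2, 2% DMSO for 60-90 min; biotin-AviTag-GST replaced RBD to flag assay-technology interferers.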
(In general: Alpha assays give light when donor and acceptor beads are brought close together.)

The mark [1] stands for this setting: GMPPNP-loaded KRAS G12C, 19-20 hours incubation with compound, read-out: IC50 (Inhibition of KRAS G12C and cRAF Binding).
Setting [2] is: additional exemplary compounds, KRAS G12C and cRAF binding, read-out: RAF1 RBD IC50.

Sequence of KRAS G12C and cRAF (Ras-binding domain) interaction (P01116 other isoform, or with tags, fused parts or gaps G12C/C51S/C80L/C118S): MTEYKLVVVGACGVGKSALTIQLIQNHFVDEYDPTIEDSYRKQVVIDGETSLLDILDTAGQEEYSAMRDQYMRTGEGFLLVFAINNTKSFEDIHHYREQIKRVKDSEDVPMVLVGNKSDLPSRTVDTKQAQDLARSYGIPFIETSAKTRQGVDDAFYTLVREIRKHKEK

On to `Cc1nccc(/C=C/C(=O)N2CCC[C@H](N(C)c3nc(OC[C@@]45CCCN4C[C@H](F)C5)nc4c(F)c(-c5cccc6cccc(Cl)c56)ncc34)C2)n1` [Example 260, (E)-1-((S)-3-((7-(8-chloronaphthalen-1-yl)-8-fluoro-2-(((2R,7aS)-2-fluorotetrahydro-1H-pyrrolizin-7a(5H)-yl)methoxy)pyrido[4,3-d]pyrimidin-4-yl)(methyl)amino)piperidin-1-yl)-3-(2-methylpyrimidin-4-yl)prop-2-en-1-one], for which the half-inhibitory concentration (IC50) under setting [1] was 100 to 500 nM.
For `CN(c1nc(OC[C@@]23CCCN2C[C@H](F)C3)nc2c(F)c(-c3cccc4cccc(Cl)c34)ncc12)[C@@H]1CCN(C(=O)/C=C/c2ncn(C)n2)C1`, the IC50 under setting [2] was greater than 500 nM.
`C=CC(=O)N1CC(CN(C)c2nc(OC[C@]34CCCN3C[C@@H](F)C4)nc3c2CCN(c2cccc4cccc(Cl)c24)C3)C1`: the IC50 under setting [2] was 100 to 500 nM.
The same measure, in the same setting: as for `C=CC(=O)N1C[C@H](N(C)c2nc(OCC34CCCN3CCC4)nc3c2CCN(c2cccc4cccc(Cl)c24)C3)C[C@H]1CC#N`, the figure is greater than 500 nM.
As for `COC(=O)/C=C/C(=O)N1CCC(N(C)c2nc(OC[C@@H]3CCCN3C)nc3c(F)c(-c4cccc5cccc(Cl)c45)ncc23)C1` (stereo partly drawn) [Example 24, methyl(E)-4-(3-((7-(8-chloronaphthalen-1-yl)-8-fluoro-2-(((S)-1-methylpyrrolidin-2-yl)methoxy)pyrido[4,3-d]pyrimidin-4-yl)(methyl)amino)pyrrolidin-1-yl)-4-oxobut-2-enoate], the IC50 under setting [1] is less than 10 nM.
Regarding `CN(c1nc(OC[C@@]23CCCN2C[C@H](F)C3)nc2c(F)c(-c3cccc4cccc(Cl)c34)ncc12)[C@@H]1CCN(C(=O)/C=C/c2nc(C3CCC3)no2)C1` [Example 111, (E)-1-((R)-3-((7-(8-chloronaphthalen-1-yl)-8-fluoro-2-(((2R,7aS)-2-fluorohexahydro-1H-pyrrolizin-7a-yl)methoxy)pyrido[4,3-d]pyrimidin-4-yl)(methyl)amino)pyrrolidin-1-yl)-3-(3-cyclobutyl-1,2,4-oxadiazol-5-yl)prop-2-en-1-one], the IC50 under setting [1] fell in the range of 10 to 100 nM.
Same read-out and setting: in the case of `C=CS(=O)(=O)C1CCN(c2nc(OC[C@@H]3CCCN3C)nc3c2CCN(c2cccc4cccc(Cl)c24)C3)C1` (stereo partly drawn) [Example 51, 7-(8-chloronaphthalen-1-yl)-2-(((S)-1-methylpyrrolidin-2-yl)methoxy)-4-(3-(vinylsulfonyl)pyrrolidin-1-yl)-5,6,7,8-tetrahydropyrido[3,4-d]pyrimidine] it was greater than 500 nM.
With `CN1CCC[C@H]1COc1nc(N(C)[C@@H]2CCN(C#N)C2)c2cnc(-c3cccc4ccc(F)c(Cl)c34)c(F)c2n1`, the IC50 under setting [2] lay within 100 to 500 nM.
Regarding `CN(c1nc(OC[C@@]23CCCN2C[C@H](F)C3)nc2c(F)c(-c3cccc4cccc(Cl)c34)ncc12)[C@@H]1CCN(C(=O)/C=C/c2nc(C3COC3)no2)C1` [Example 159, (E)-1-((R)-3-((7-(8-chloronaphthalen-1-yl)-8-fluoro-2-(((2R,7aS)-2-fluorohexahydro-1H-pyrrolizin-7a-yl)methoxy)pyrido[4,3-d]pyrimidin-4-yl)(methyl)amino)pyrrolidin-1-yl)-3-(3-(oxetan-3-yl)-1,2,4-oxadiazol-5-yl)prop-2-en-1-one], the IC50 under setting [1] was less than 10 nM.
Turning to `C/C=C/S(=O)(=O)CCN(C)c1nc(OCC23CCCN2CCC3)nc2c1CCN(c1cccc3cccc(Cl)c13)C2` [Example 54, (E)-7-(8-chloronaphthalen-1-yl)-2-((hexahydro-1H-pyrrolizin-7a-yl)methoxy)-N-methyl-N-(2-(prop-1-en-1-ylsulfonyl)ethyl)-5,6,7,8-tetrahydropyrido[3,4-d]pyrimidin-4-amine], the IC50 under setting [1] fell in the range of 100 to 500 nM.
With `Cc1noc(/C=C/C(=O)N2CC[C@@H](N(C)c3nc(OC[C@@]45CCCN4C[C@H](F)C5)nc4c3CCN(c3cccc5cccc(Cl)c35)C4)C2)n1` [Example 178, (E)-1-((R)-3-((7-(8-chloronaphthalen-1-yl)-2-(((2R,7aS)-2-fluorohexahydro-1H-pyrrolizin-7a-yl)methoxy)-5,6,7,8-tetrahydropyrido[3,4-d]pyrimidin-4-yl)(methyl)amino)pyrrolidin-1-yl)-3-(3-methyl-1,2,4-oxadiazol-5-yl)prop-2-en-1-one], under setting [1], the IC50 is less than 10 nM.
`C=CC(=O)N1CC[C@@H](N(C)c2nc(OC[C@@]34CCCN3C[C@H](F)C4)nc3c(F)c(-c4cccc5ccc(F)c(CC)c45)ncc23)C1` [Example 185, 1-((R)-3-((7-(8-ethyl-7-fluoronaphthalen-1-yl)-8-fluoro-2-(((2R,7aS)-2-fluorotetrahydro-1H-pyrrolizin-7a(5H)-yl)methoxy)pyrido[4,3-d]pyrimidin-4-yl)(methyl)amino)pyrrolidin-1-yl)prop-2-en-1-one]: the IC50 under setting [1] was in the range of 100 to 500 nM.
With `Cc1ncc(F)c(/C=C/C(=O)N2CC[C@@H](N(C)c3nc(OC[C@@]45CCCN4C[C@H](F)C5)nc4c(F)c(-c5cccc6ccc(F)c(F)c56)ncc34)C2)n1` [Example 295, (E)-1-((R)-3-((7-(7,8-difluoronaphthalen-1-yl)-8-fluoro-2-(((2R,7aS)-2-fluorotetrahydro-1H-pyrrolizin-7a(5H)-yl)methoxy)pyrido[4,3-d]pyrimidin-4-yl)(methyl)amino)pyrrolidin-1-yl)-3-(5-fluoro-2-methylpyrimidin-4-yl)prop-2-en-1-one], the IC50 under setting [1] lay in the range of 10 to 100 nM.
Regarding `CN(CC1CCN(C#N)C1)c1nc(OC[C@@H]2CCCN2C)nc2c1CCN(c1cccc3cccc(Cl)c13)C2` (stereo partly drawn) [Example 31, 3-(((7-(8-chloronaphthalen-1-yl)-2-(((S)-1-methylpyrrolidin-2-yl)methoxy)-5,6,7,8-tetrahydropyrido[3,4-d]pyrimidin-4-yl)(methyl)amino)methyl)pyrrolidine-1-carbonitrile], the IC50 under setting [1] is greater than 500 nM.
The same measure, in the same setting: in the case of `CN(CCS(=O)(=O)/C=C/CN1CC(F)C1)c1nc(OC[C@@H]2CCCN2C)nc2c1CCN(c1cccc3cccc(Cl)c13)C2` [Example 53, 7-(8-chloro-1-naphthyl)-N-[2-[(E)-3-(3-fluoroazetidin-1-yl)prop-1-enyl]sulfonylethyl]-N-methyl-2-[[(2S)-1-methylpyrrolidin-2-yl]methoxy]-6,8-dihydro-5H-pyrido[3,4-d]pyrimidin-4-amine] it was 100 to 500 nM.
Take `CN(C)C/C=C/C(=O)N1CC[C@@H](N(C)c2nc(OCC34CCCN3CCC4)nc3c2CCN(c2cccc4cccc(Cl)c24)C3)C1`: under setting [2], the IC50 fell in the range of 10 to 100 nM.
Turning to `COC(=O)/C=C/C(=O)NC1CCN(c2nc(OC[C@@H]3CCCN3C)nc3c2CCN(c2cccc4cccc(Cl)c24)C3)C1` (stereo partly drawn) [Example 14, methyl(E)-4-((1-(7-(8-chloronaphthalen-1-yl)-2-(((S)-1-methylpyrrolidin-2-yl)methoxy)-5,6,7,8-tetrahydropyrido[3,4-d]pyrimidin-4-yl)pyrrolidin-3-yl)amino)-4-oxobut-2-enoate], the IC50 under setting [1] was greater than 500 nM.
Regarding `C=CC(=O)N1C[C@H]2C[C@@H]1CN2c1nc(OCC23CCCN2CCC3)nc2c1CCN(c1cccc3cccc(Cl)c13)C2`, under setting [2], the IC50 is greater than 500 nM.
As to `Cc1nccc(/C=C/C(=O)N2C[C@@H]3CN(c4nc(OC[C@@]56CCCN5C[C@H](F)C6)nc5c(F)c(-c6cccc7cccc(Cl)c67)ncc45)C[C@@H]3C2)n1`, the IC50 under setting [2] was greater than 500 nM.
As to `CN(C)C/C=C/C(=O)N1CC[C@@H](N(C)c2nc(OC[C@@H]3CCCN3C)nc3c(F)c(-c4cccc5ccc(F)c(Cl)c45)ncc23)C1`, the IC50 under setting [2] fell in the range of 10 to 100 nM.
For `Cc1c(F)ccc2c(-c3ncc4c(N(C)[C@@H]5CCN(C(=O)/C=C/[C@H]6CCN6C)C5)nc(OC[C@@]56CCCN5C[C@H](F)C6)nc4c3F)cccc12` [Example 282, (E)-1-((R)-3-((8-fluoro-7-(6-fluoro-5-methylnaphthalen-1-yl)-2-(((2R,7aS)-2-fluorotetrahydro-1H-pyrrolizin-7a(5H)-yl)methoxy)pyrido[4,3-d]pyrimidin-4-yl)(methyl)amino)pyrrolidin-1-yl)-3-((R)-1-methylazetidin-2-yl)prop-2-en-1-one], the IC50 under setting [1] is 100 to 500 nM.
Take `C=CC(=O)N1CC[C@@H](N(C)c2nc(OC[C@@]34CCCN3C[C@H](F)C4)nc3c(F)c(-c4cc(O)cc5ccccc45)ncc23)C1` [Example 158, 1-((R)-3-((8-fluoro-2-(((2R,7aS)-2-fluorohexahydro-1H-pyrrolizin-7a-yl)methoxy)-7-(3-hydroxynaphthalen-1-yl)pyrido[4,3-d]pyrimidin-4-yl)(methyl)amino)pyrrolidin-1-yl)prop-2-en-1-one]: the IC50 under setting [1] is less than 10 nM.
As to `C#Cc1c(F)ccc2cccc(-c3ncc4c(N(C)[C@@H]5CCN(C(=O)/C=C/CN6C[C@H]7C[C@@H]6CO7)C5)nc(OC[C@@]56CCCN5C[C@H](F)C6)nc4c3F)c12` [Example 290, (E)-4-((1R,4R)-2-oxa-5-azabicyclo[2.2.1]heptan-5-yl)-1-((R)-3-((7-(8-ethynyl-7-fluoronaphthalen-1-yl)-8-fluoro-2-(((2R,7aS)-2-fluorotetrahydro-1H-pyrrolizin-7a(5H)-yl)methoxy)pyrido[4,3-d]pyrimidin-4-yl)(methyl)amino)pyrrolidin-1-yl)but-2-en-1-one], the IC50 under setting [1] is less than 10 nM.
Consider `COC(=O)/C=C/C(=O)N1C[C@H](N(C)c2nc(OC[C@@H]3CCCN3C)nc3c2CCN(c2cccc4cccc(Cl)c24)C3)C[C@H]1C` [Example 17, methyl(E)-4-((2R,4R)-4-((7-(8-chloronaphthalen-1-yl)-2-(((S)-1-methylpyrrolidin-2-yl)methoxy)-5,6,7,8-tetrahydropyrido[3,4-d]pyrimidin-4-yl)(methyl)amino)-2-methylpyrrolidin-1-yl)-4-oxobut-2-enoate], for which the IC50 under setting [1] lay in the range of 10 to 100 nM.
With `C=CC(=O)C1CCN(c2nc(OC[C@@H]3CCCN3C)nc3c2CCN(c2cccc4cccc(Cl)c24)C3)CC1` [Example 42, (S)-1-(1-(7-(8-chloronaphthalen-1-yl)-2-((1-methylpyrrolidin-2-yl)methoxy)-5,6,7,8-tetrahydropyrido[3,4-d]pyrimidin-4-yl)piperidin-4-yl)prop-2-en-1-one], the IC50 under setting [1] lay within 10 to 100 nM.

What is called IC50 is the concentration needed to halve the response being measured.

The values are drawn from US20250019387A1 (Frontier Medicines Corporation, priority 0001, published 2025).
